Values quoted from earlier work as cited in PubChem BioAssay AID1259409 (Chemical Carcinogenesis Research Information System (CCRIS), 2018).

System: rodent chemically induced tumor inhibition, incidence and multiplicity
Test: CCRIS tumor inhibitor studies
Details: Route [Inhibitor]: ORAL

Q: Which “tumour outcome (control, treated, inhibition, significance)” value (Carcinogen: DIETHYLNITROSAMINE, 55-18-5, Dose [Inhibitor]: 0, 10 MG/L IN DRINKING WATER FOR DURATION OF STUDY BEGINNING 4 D POST CARCINOGEN TREATMENT (STUDY DURATION: 6 MO), Species: RAT, Strain/Sex: BD6/FEMALE, Target Tissue: Type of Lesion: ESOPHAGUS: TUMOR, Dose [Carcinogen]: 80 MG/KG BW 1/WK FOR 9 WK, Promoter: NONE USED) does the source give for O=[Se](O)O here?
A: Its value is 29%, 18%, 38%, not significant.

Q: And the “tumour outcome (control, treated, inhibition, significance)” value (Carcinogen: DIETHYLNITROSAMINE, 55-18-5, Dose [Inhibitor]: 0, 10 MG/L IN DRINKING WATER FOR DURATION OF STUDY BEGINNING 7 D PRIOR TO CARCINOGEN TREATMENT (STUDY DURATION: 6 MO), Species: RAT, Strain/Sex: BD6/FEMALE, Target Tissue: Type of Lesion: ESOPHAGUS: TUMOR, Dose [Carcinogen]: 80 MG/KG BW 1/WK FOR 7 WK, Promoter: NONE USED)?
A: Its value is 25%, 14%, 44%, not significant.

Q: What about the “tumour outcome (control, treated, inhibition, significance)” value (Carcinogen: DIETHYLNITROSAMINE, 55-18-5, Dose [Inhibitor]: 0, 10 MG/L IN DRINKING WATER FOR DURATION OF STUDY BEGINNING 7 D PRIOR TO CARCINOGEN TREATMENT (STUDY DURATION: 6 MO), Species: RAT, Strain/Sex: BD6/FEMALE, Target Tissue: Type of Lesion: LIVER: TUMOR, Dose [Carcinogen]: 80 MG/KG BW 1/WK FOR 7 WK, Promoter: NONE USED) of the same compound?
A: Its value is 64%, 31%, 52%, p<0.05.

Q: And the “tumour outcome (control, treated, inhibition, significance)” value (Carcinogen: DIETHYLNITROSAMINE, 55-18-5, Dose [Inhibitor]: 0, 10 MG/L IN DRINKING WATER FOR DURATION OF STUDY BEGINNING 7 D PRIOR TO FIRST CARCINOGEN DOSE (STUDY DURATION: 6 MO), Species: RAT, Strain/Sex: BD6/FEMALE, Target Tissue: Type of Lesion: ESOPHAGUS: TUMOR, Dose [Carcinogen]: 80 MG/KG BW 1/WK FOR 8 WK, Promoter: NONE USED)?
A: Its value is 31%, 39%, -26%, not significant.

Q: And the “tumour outcome (control, treated, inhibition, significance)” value (Carcinogen: DIETHYLNITROSAMINE, 55-18-5, Dose [Inhibitor]: 0, 10 MG/L IN DRINKING WATER FOR DURATION OF STUDY BEGINNING 7 D PRIOR TO FIRST CARCINOGEN DOSE (STUDY DURATION: 6 MO), Species: RAT, Strain/Sex: BD6/FEMALE, Target Tissue: Type of Lesion: ESOPHAGUS: TUMOR, Dose [Carcinogen]: 100 MG/L IN DRINKING WATER FOR 3.5 MO, Promoter: NONE USED)?
A: The value was 37%, 25%, 32%, not significant.

Q: And the “tumour outcome (control, treated, inhibition, significance)” value (Carcinogen: DIETHYLNITROSAMINE, 55-18-5, Dose [Inhibitor]: 0, 10 MG/L IN DRINKING WATER FOR DURATION OF STUDY BEGINNING 7 D PRIOR TO FIRST CARCINOGEN DOSE (STUDY DURATION: 6 MO), Species: RAT, Strain/Sex: BD6/FEMALE, Target Tissue: Type of Lesion: LIVER: TUMOR, Dose [Carcinogen]: 80 MG/KG BW 1/WK FOR 8 WK, Promoter: NONE USED)?
A: Its value is 94%, 69%, 27%, not significant.

Q: And the “tumour outcome (control, treated, inhibition, significance)” value (Carcinogen: DIETHYLNITROSAMINE, 55-18-5, Dose [Inhibitor]: 0, 10 MG/L IN DRINKING WATER FOR DURATION OF STUDY BEGINNING 7 D PRIOR TO FIRST CARCINOGEN DOSE (STUDY DURATION: 6 MO), Species: RAT, Strain/Sex: BD6/FEMALE, Target Tissue: Type of Lesion: LIVER: TUMOR, Dose [Carcinogen]: 100 MG/L IN DRINKING WATER FOR 3.5 MO, Promoter: NONE USED)?
A: The value was 95%, 94%, 1%, not significant.

Q: And the “tumour outcome (control, treated, inhibition, significance)” value (Carcinogen: DIETHYNITROSAMINE, 55-18-5, Dose [Inhibitor]: 0, 1 MG/L IN DRINKING WATER FOR DURATION OF STUDY BEGINNING 7 D PRIOR TO FIRST CARCINOGEN DOSE (STUDY DURATION: 6 MO), Species: RAT, Strain/Sex: BD6/FEMALE, Target Tissue: Type of Lesion: LIVER: TUMOR, Dose [Carcinogen]: 80 MG/KG BW 1/WK FOR 8 WK, Promoter: NONE USED)?
A: Its value is 85%, 75%, 12%, not significant.

Q: And the “tumour outcome (control, treated, inhibition, significance)” value (Carcinogen: ETHYLNITROSOUREA, 759-73-9, Dose [Inhibitor]: 0, 4 MG/L TAP DRINKING WATER FOR LIFE (STUDY DURATION: 310 D), Species: RAT, Strain/Sex: ALBINO/MALE,FEMALE, Target Tissue: Type of Lesion: KIDNEY: MESENCHYMAL TUMOR OR ADENOCARCINOMA, Dose [Carcinogen]: 75 MG/KG IN SALINE BY INTRAVENOUS INJECTION ONCE 21 D AFTER CONCEPTION)?
A: Its value is 33/89 (37%), 20/55 (36%), 3%, not calculated.

Q: And the “tumour outcome (control, treated, inhibition, significance)” value (Carcinogen: ETHYLNITROSOUREA, 759-73-9, Dose [Inhibitor]: 0, 4 MG/L TAP DRINKING WATER FOR LIFE (STUDY DURATION: 310 D), Species: RAT, Strain/Sex: ALBINO/MALE,FEMALE, Target Tissue: Type of Lesion: SPINAL CORD: TUMOR, Dose [Carcinogen]: 75 MG/KG IN SALINE BY INTRAVENOUS INJECTION ONCE 21 D AFTER CONCEPTION)?
A: Its value is 55/89 (62%), 32/55 (58%), 6%, not calculated.

Q: What about the “tumour outcome (control, treated, inhibition, significance)” value (Carcinogen: ETHYLNITROSOUREA, 759-73-9, Dose [Inhibitor]: 0, 4 MG/L TAP DRINKING WATER FOR LIFE (STUDY DURATION: 310 D), Species: RAT, Strain/Sex: ALBINO/MALE/FEMALE, Target Tissue: Type of Lesion: BRAIN: GLIOMA OR ASTROCYTOMA, Dose [Carcinogen]: 75 MG/KG IN SALINE BY INTRAVENOUS INJECTION ONCE 21 D AFTER CONCEPTION) of the same compound?
A: Its value is 54/89 (61%), 33/55 (60%), 2%, not calculated.

Q: And the “tumour outcome (control, treated, inhibition, significance)” value (Carcinogen: ETHYLNITROSOUREA, 759-73-9, Dose [Inhibitor]: 0, 4 MG/L TAP DRINKING WATER FOR LIFE (STUDY DURATION: 319 D), Species: RAT, Strain/Sex: ALBINO/MALE,FEMALE, Target Tissue: Type of Lesion: NERVOUS SYSTEM: SCHWANNOMA, Dose [Carcinogen]: 75 MG/KG IN SALINE BY INTRAVENOUS INJECTION ONCE 21 D AFTER CONCEPTION)?
A: The value was 37/89 (42%), 21/55 (38%), 10%, not calculated.

Q: What about the “tumour outcome (control, treated, inhibition, significance)” value (Carcinogen: METHYLAZOXYMETHANOL, 590-96-5, Dose [Inhibitor]: 4 PPM IN DRINKING WATER DAILY FOR 20 WK STARTING SIMULTANEOUSLY WITH CARCINOGEN TREATMENT AND CONTINUING THROUGH END OF, Species: RAT, Strain/Sex: SPRAGUE-DAWLEY/MALE, Target Tissue: Type of Lesion: COLON: ADENOCARCINOMA, Dose [Carcinogen]: 20 MG/KG BW 1/WK FOR 20 WK, Promoter: NONE USED) of the same compound?
A: Its value is 14/14 (100%), 14/15 (93%), 7%, not significant.

Q: What about the “tumour outcome (control, treated, inhibition, significance)” value (Carcinogen: METHYLCHOLANTHRENE, 56-49-5, Dose [Inhibitor]: 0, 1 PPM IN DRINKING WATER FOR 13 WK BEGINNING 1 WK PRIOR TO CARCINOGEN TREATMENT (STUDY DURATION: 13 WK), Species: MOUSE, Strain/Sex: SWISS/FEMALE, Target Tissue: Type of Lesion: UTERUS: SQUAMOUS CELL TUMOR, Dose [Carcinogen]: 600 UG IN BEESWAX IMPREGNATED COTTON THREAD INSERTED INTO UTERINE CERVIX CANAL, Promoter: NONE USED) of the same compound?
A: The value was 18/25 (72%), 13/35 (37%), 49%, p<0.05.

Q: And the “tumour outcome (control, treated, inhibition, significance)” value (Carcinogen: N'-NITROSOBIS(2-OXOPROPYL)AMINE, 60599-38-4, Dose [Inhibitor]: 0.1, 4 PPM (43.5 UG/D) IN DRINKING WATER BEGINNING 8 WK PRIOR TO FIRST CARCINOGEN DOSE AND CONTINUING FOR DURATION OF ST, Species: HAMSTER, Strain/Sex: SYRIAN/FEMALE, Target Tissue: Type of Lesion: PANCREAS: TUMOR, Dose [Carcinogen]: 10 MG/KG IN 0.9% SALINE 1/WK FOR 10 WK, Promoter: NONE USED)?
A: Its value is 88%, 88%, 0%.
